# System: adenovirus type 6 (ADV6)
# Experiment: Evaluation of anti-adenovirus activity (CRL-11516 cells infected with ADV6, anti-hexon staining)
# Type: cell-based
# Settings: Human mastadenovirus C, 48 h, read-out: Anti-AdV activity EC50
row,Structure (SMILES),EC50 [nM]
1,"COC(=O)[C@H](C)NP(=O)(OC[C@H]1C[C@@H](n2cnc3c(OC)nc(N)nc32)C1)Oc1cccc2ccccc12 (stereo partly drawn) [Example 1-2-1, methyl (((cis-3-(2-amino-6-methoxy-9H-purin-9-yl)cyclobutyl)methoxy)(naphthalen-1-yloxy)phosphoryl)-L-alaninate]",100 to 1000
2,"COc1nc(N)nc2c1ncn2[C@H]1C[C@@H](COP(=O)(OCCSC(=O)C(C)(C)C)Oc2ccccc2)C1 (stereo partly drawn) [Example 3-1, S-(2-((((cis-3-(2-amino-6-methoxy-9H-purin-9-yl)cyclobutyl)methoxy)(phenoxy)phosphoryl)oxy)ethyl)2,2-dimethylpropanethioate]",1000 to 10000
3,"COc1nc(N)nc2c1ncn2[C@H]1C[C@@H](COP(=O)(N[C@@H](C)C(=O)OCc2ccccc2)Oc2ccccc2)C1 (stereo partly drawn) [Example 3-2-1, Benzyl (((cis-3-(2-amino-6-methoxy-9H-purin-9-yl)cyclobutyl)methoxy) (phenoxy)phosphoryl)-L-alaninate]",100 to 1000
4,"COC(=O)[C@H](C)NP(=O)(OC[C@H]1C[C@@H](n2cnc3c(OC)nc(N)nc32)C1)Oc1ccccc1 (stereo partly drawn) [Example 3-2-2, Methyl (((cis-3-(2-amino-6-methoxy-9H-purin-9-yl)cyclobutyl)methoxy)(phenoxy)phosphoryl)-L-alaninate]",100 to 1000
5,"COC(=O)[C@H](C)NP(=O)(OC[C@H]1C[C@@H](n2cnc3c(OC)nc(N)nc32)C1)Oc1ccc(Cl)cc1 (stereo partly drawn) [Example 8-2-1, Methyl (((cis-3-(2-amino-6-methoxy-9H-purin-9-yl)cyclobutyl)methoxy)(4-chlorophenoxy)phosphoryl)-L-alaninate]",< 100
6,"COc1nc(N)nc2c1ncn2[C@H]1C[C@@H](COP(=O)(N[C@@H](C)C(=O)OC(C)C)Oc2ccccc2)C1 (stereo partly drawn) [Example 3-2-4, Isopropyl (((cis-3-(2-amino-6-methoxy-9H-purin-9-yl)cyclobutyl)methoxy) (phenoxy)phosphoryl)-L-alaninate]",1000 to 10000
7,"COC(=O)[C@H](C)NP(=O)(OC[C@H]1C[C@@H](n2cnc3c(OC)nc(N)nc32)C1)Oc1ccc(Br)cc1 (stereo partly drawn) [Example 1-1, methyl (((cis-3-(2-amino-6-methoxy-9H-purin-9-yl)cyclobutyl)methoxy)(4-bromophenoxy)phosphoryl)-L-alaninate]",< 100

# Same assay, conditions: Human mastadenovirus C; CRL-11516 cells, ADV6 (50TCID50), 48 hours; 50% reduction of dark brown-stained cells; read-out: Anti-AdV activity EC50
row,Structure (SMILES),EC50 [nM]
1,"Nc1nc2c(ncn2[C@H]2C[C@@H](CO)C2)c(=O)[nH]1 [Comparative Example 1, 2-Amino-9-(cis-3-(hydroxymethyl)cyclobutyl)-1,9-dihydro-6H-purin-6-one, reference compound]",> 10000

# Same assay, conditions: read-out: Anti-AdV activity EC50
row,Structure (SMILES),EC50 [nM]
1,"COC(=O)[C@H](C)NP(=O)(OC[C@H]1C[C@@H](n2cnc3c(OC)nc(N)nc32)C1)Oc1ccc(Cl)cc1 (stereo partly drawn) [Example 8-2-2, Methyl (((cis-3-(2-amino-6-methoxy-9H-purin-9-yl)cyclobutyl)methoxy)(4-chlorophenoxy)phosphoryl)-L-alaninate]",100 to 1000
2,"COC(=O)[C@H](C)NP(=O)(OC[C@H]1C[C@@H](n2cnc3c(OC)nc(N)nc32)C1)Oc1ccc(Cl)cc1 (stereo partly drawn) [Example 1-2-2, Methyl (((cis-3-(2-amino-6-methoxy-9H-purin-9-yl)cyclobutyl)methoxy)(4-chloro-phenoxy)phosphoryl)-L-alaninate]",< 100
